Source: patent publication US20150144845A1, “SOLVENT OR SOLVENT COMPOSITION FOR ORGANIC TRANSISTOR PRODUCTION” (DAICEL CORPORATION, priority 2012, published 2015)
Like-named read-outs stand apart in the source and are kept apart here.

Assays:
[1] = Visual solubility of DNTT in solvent for organic transistor production
Experimental: (§1) The resulting mixture was heated in a nitrogen atmosphere under a light-shielding condition at 100° C. for about 6 hours, preparing a composition for organic transistor production. With respect to the resulting composition for organic transistor production, the solubility of the organic semiconductor material was observed. Herein, the solubility was visually evaluated, and a case where no insoluble material was observed was rated as “∘: dissolution”, and a case where an insoluble material was observed was rated as “x: not dissolution”. The same shall apply hereafter.
(§2) The resulting mixture was heated in a nitrogen atmosphere under a light-shielding condition at 100° C. for about 2 hours, preparing a composition for organic transistor production. With respect to the resulting composition for organic transistor production, the solubility of the organic semiconductor material was observed.

[2] = Visual solubility of DPh-BTBT in solvent for organic transistor production
Experimental: as §1, §2

[3] = Visual solubility of pentacene in solvent for organic transistor production
Experimental: as §1

[4] = Visual solubility of Rubrene in solvent for organic transistor production; format: physicochemical; details: summary of Examples, 100° C.
Experimental: as §1
Rubrene (compound represented by formula (2-1)) (produced by Tokyo Chemical Industry Co., Ltd.) was used as an organic semiconductor material, and each solvent for organic transistor production shown in Table 2 was used under an environment of 20° C., providing a mixture including the organic semiconductor material in a concentration of 4.00% by weight to 5.00% by weight. The resulting mixture was heated in a nitrogen atmosphere under a light-shielding condition at 100° C. for about 2 hours, preparing a composition for organic transistor production. With respect to the resulting composition for organic transistor production, the solubility of the organic semiconductor material was observed.

CN1CCN(C)C1=O [1,3-dimethyl-2-imidazolidinone]
solubility of DNTT in the solvent compared with tetralin and 1,2,4-trichlorobenzene [1]: better | solubility of DPh-BTBT in the solvent compared with tetralin and 1,2,4-trichlorobenzene [2]: better | solubility of pentacene in the solvent compared with tetralin and 1,2,4-trichlorobenzene [3]: better | solubility of Rubrene in the solvent compared with tetralin and 1,2,4-trichlorobenzene [4]: excellent

CN1CCCN(C)C1=O [1,3-dimethyl-3,4,5,6-tetrahydro-2(1H)-pyrimidinone]
solubility of DNTT in the solvent compared with tetralin and 1,2,4-trichlorobenzene ([1]; summary of Examples, 100° C.): better | solubility of DPh-BTBT in the solvent compared with tetralin and 1,2,4-trichlorobenzene ([2]; summary of Examples, 100° C.): better | solubility of pentacene in the solvent compared with tetralin and 1,2,4-trichlorobenzene ([3]; summary of Examples, 100° C.): better | solubility of Rubrene in the solvent compared with tetralin and 1,2,4-trichlorobenzene [4]: excellent
